Measurements from US20080255368A1, “Tgf-ß Gene Expression Inhibitor” (Nihon University, priority 2004, published 2008).

Columns and labels:
[1] = test system: double-stranded oligonucleotides corresponding to base pairs of an hTGF-β1 promoter; assay: Gel shift assay of Py-Im polyamide-oligonucleotide complexes; assay type: binding, human; conditions: 11-base double-stranded DNA containing the target sequence, compared with lanes with DS only, FIG. 3
Procedure: Oligonucleotides were synthesized and annealed, and thereby 12 types of double-stranded oligonucleotides corresponding to base pairs of an hTGF-β1 promoter were prepared. A double-strand DNA was labeled with [γ-^32P]-ATP by T4 polynucleotide kinase. The labeled double-stranded DNA was then incubated for 15 minutes at 37° C. with a polyamide or a mismatch polyamide in a binding buffer solution (40 mM Tris, pH 7.9, 250 mM NaCl, 25 mM EDTA, 25 mM DTT, 100 mM KCl). The obtained complexes were separated by electrophoresis on 20% polyacrylamide gels and visualized by autoradiography.
The binding to target sequences of GB1105 and GBP1106 was examined by gel shift assay. Sense and antisense oligonucleotide having 11 bases containing each target sequence of Py-Im polyamide were prepared, annealed to prepare a double-stranded DNA to the target site, and incubated with each Py-Im polyamide. The obtained products were electrophoresed with polyacrylamide gel and the binding between Py-Im and the target sequence was examined.

[2] = test system: TGF-β1 messenger RNA; assay: Inhibition of expression of TGF-β1 messenger RNA in PMA-stimulated human mesangium cells (RT-PCR); assay type: cell-based; conditions: 12 hours serum-free; for inhibition of expression of TGFβ1 gene: 1×10^−6 M polyamide, 1×10^−6 M PMA stimulation, corrected with 18S
Procedure: (6) Reverse Transcription-Polymerase Chain Reaction (RT-PCR) Assay for RNA Extraction and Growth Factor mRNA
The cultured cells were washed with PBS, dissolved in 1,000 μL of Trizol (Invitrogen), mixed with 100 μL of chloroform, and centrifuged, and an upper aqueous phase thereof was mixed with an equal volume of isopropanol to precipitate RNA. The resulting RNA pellet was washed twice with 500 μL of 75% ethanol, dried, and dissolved in 10 μL of TE buffer solution. The RNA sample was denatured for 15 minutes at 65° C., and treated at room temperature for 45 minutes with 0.5 U of DNase (Gibco) in 0.5 ml of DNase buffer solution (20 mM Tris-HCl pH 8.3, 50 mM KCl, 2.5 mM MgCl2. The DNase was inactivated by adding 0.5 mL of 0.5 M EDTA and heating at 98° C. for 10 minutes.
An equal volume of RNA (1 μg/20 μL) was reverse-transcribed into single-stranded cDNA by 2.5 U/20 μL of avian myeloblastoma virus reverse transcriptase (Takara Biochemicals, Osaka, Japan) in 10 mM Tris-HCl (pH 8.3), 5 mM MgCl2, 50 mM KCl, 1 mM deoxy-NTPs, and 2.5 μM random hexamer. Then, 2 μL of the diluted cDNA product was mixed with 10 mM Tris-HCl (pH 8.3), 50 mM KCl, 4 mM MgCl2, 0.025 U/μL Taq DNA polymerase (Takara Biochemicals, Osaka, Japan), and 0.2 μM each of upstream sense primer and downstream antisense primer in a final volume of 25 μL. The sense primer (5′-[…]-3′) (SEQ ID NO: 7) and the antisense primer (5′-[…]-3′) (SEQ ID NO: 8) were used for PCR amplification of hTGF-β1 mRNA. A sense primer (5′-[…]-3′) (SEQ ID NO: 9) and an antisense primer (5′-[…]-3′) (SEQ ID NO:. 10) to human 18S ribosomal RNA were used as an internal control. PCR was performed by a Thermal Cycler (Perkin Elmer, Foster, Calif.). […] For semi-quantitative analysis of mRNA, the numbers of cycles whereby PCR products were detectable on gels were compared among various samples. cDNAs by successively 10 times dilutions (100, 10, and 1 ng) were amplified. […]

Row | Compound | binding to target sequence (migration of double-stranded DNA in gel shift) [1] | inhibition of expression of TGFβ1 gene [2] | increase of expression of TGFβ1 gene ([2]; 1×10^−6 M of PMA stimulation, human mesangium cells) [%]
1 | CNCCCNC(=O)CCNC(=O)c1cc(NC(=O)c2cc(NC(=O)CCNC(=O)c3cc(NC(=O)c4cc(NC(=O)c5cc(NC(=O)CCCNC(=O)c6nc(NC(=O)c7cc(NC(=O)c8nc(NC(=O)CCNC(=O)c9nc(NC(=O)c%10nc(NC(C)=O)cn%10C)cn9C)cn8C)cn7C)cn6C)cn5C)cn4C)cn3C)cn2C)cn1C [GBP1105] | decreased the migration degree | up to 50% | –
2 | CC(=O)Nc1cn(C)c(C(=O)Nc2cc(C(=O)Nc3cn(C)c(C(=O)NCCC(=O)Nc4cc(C(=O)Nc5cc(C(=O)Nc6cc(C(=O)NCCCC(=O)Nc7cn(C)c(C(=O)Nc8cc(C(=O)Nc9cn(C)c(C(=O)NCCC(=O)Nc%10cc(C(=O)Nc%11cc(C(=O)Nc%12cc(C(=O)NCCC(=O)NCCCN(C)C)n(C)c%12)n(C)c%11)n(C)c%10)n9)n(C)c8)n7)n(C)c6)n(C)c5)n(C)c4)n3)n(C)c2)n1 [GBP1106] | decreased the migration degree | up to 50% | –
3 | CCCCCCCCCCCCCC(=O)O[C@@H]1[C@@H](C)[C@@]2(O)[C@@H](C=C(CO)C[C@]3(O)C(=O)C(C)=C[C@@H]23)[C@@H]2C(C)(C)[C@]12OC(C)=O [PMA, 12-o-tetradecanoylpholbol-13-acetate, reference compound] | – | – | 20
